The values below come from the supplement of paper PMC11208160.
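Note: IS621 recombinase and bridge RNA in Escherichia coli cells.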

The data set in a line: recombinant barcode read abundance after kanamycin selection (control-corrected) (log10(CPM+1)); higher = more efficient recombination; sequences stand for … in AGTGCAGAGAAAATCGGCCAGTTTTCTCTGCCTGCAGTCCGCATGCCGT…AGATTTATGCAGCGGACTGCCTTTCTCCCAAAGTGATAAACCGGACAGTATCATGGACCGGTTTTCCCGGTAATCCGTATTTGCAAGGTTGGTTTCACT; site = the 11-nt target. In outline:
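A promoter, a target, a barcode and the first 104 bridge RNA bases under J23119 made up each oligo. Oligos were Gibson-cloned into a vector bearing the other 73 bp and a T7-inducible recombinase, then co-electroporated into E. coli with a donor plasmid and plated in duplicate on chloramphenicol/ampicillin LB agar (control) or chloramphenicol/ampicillin/kanamycin with 0.1 mM IPTG. Recombination efficiency is the averaged, control-corrected counts per million of recombinant-junction barcodes. Reported values are log10(CPM+1).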
Take “TCCTAACCTTGGGTTCTAACCTGTTGCTG (site ACCTAACCTCT)”: the “recombinant barcode read abundance (log10)” value was found to be 0.0586.

Take “TCCTAACCTTGGGTTCTAACCTGTTGCTG (site TCCTAACCTCA)”: the “recombinant barcode read abundance (log10)” value was 1.37.

Take “TCCTAATCTTGGGTTCTAACCTGTTGCAT (site TCCTAACCTAG)”: the “recombinant barcode read abundance (log10)” value was 0.0364.

Turning to “TCCTAATCTTGGGTTCTAACCTGTTGCAT (site TCCTAATCTAT)”, the “recombinant barcode read abundance (log10)” value is 0.607.

As to “TCCTACCCTTGGGTTCTAACCTGTTGCCT (site TACTACCCTAG)”, the “recombinant barcode read abundance (log10)” value came to 0.0977.

Regarding “TCCTACCCTTGGGTTCTAACCTGTTGCCT (site TCCTACCCTAG)”, the “recombinant barcode read abundance (log10)” value was 1.36.

In the case of “TCCTACCCTTGGGTTCTAACCTGTTGCCT (site TGCTACCCTAG)”, the “recombinant barcode read abundance (log10)” value turned out to be 0.052.

Consider “TCCTACCCTTGGGTTCTAACCTGTTGCCT (site TTCTACCCTAG)”, for which the “recombinant barcode read abundance (log10)” value came out at 0.271.

For the sequence “TCCTACTCTTGGGTTCTAACCTGTTGCCG (site TCCGACTCTCG)”, the “recombinant barcode read abundance (log10)” value was 0.0792.

Take “TCCTACTCTTGGGTTCTAACCTGTTGCCG (site TCCTACTCTCG)”: the “recombinant barcode read abundance (log10)” value was determined as 0.688.

In the case of “TCCTAGACTTGGGTTCTAACCTGTTGCGG (site TCCTAGACTCC)”, the “recombinant barcode read abundance (log10)” value was found to be 1.53.

Consider “TCCTAGACTTGGGTTCTAACCTGTTGCGG (site TTCTAGACTCC)”, for which the “recombinant barcode read abundance (log10)” value turned out to be 0.117.

Regarding “TCCTAGGCTTGGGTTCTAACCTGTTGCGC (site TCCTAGGCTGC)”, the “recombinant barcode read abundance (log10)” value was 1.72.

Regarding “TCCTAGGCTTGGGTTCTAACCTGTTGCGC (site TCTTAGGCTAC)”, the “recombinant barcode read abundance (log10)” value stood at 0.161.

As to “TCCTATGCTTGGGTTCTAACCTGTTGCTA (site CAAGTGACTAG)”, the “recombinant barcode read abundance (log10)” value came to 0.0648.

Regarding “TCCTATGCTTGGGTTCTAACCTGTTGCTA (site TCCTATGCTTA)”, the “recombinant barcode read abundance (log10)” value came out at 0.0755.

For the sequence “TCCTATTCTTGGGTTCTAACCTGTTGCGA (site TACTATGCTTC)”, the “recombinant barcode read abundance (log10)” value turned out to be 0.141.

Regarding “TCCTATTCTTGGGTTCTAACCTGTTGCGA (site TCCTATTCTTC)”, the “recombinant barcode read abundance (log10)” value was 0.544.

In the case of “TCCTGGGCTTGGGTTCTAACCTGTTGCCG (site TCCTGGGCTCG)”, the “recombinant barcode read abundance (log10)” value amounted to 0.0509.

Regarding “TCCTGGGCTTGGGTTCTAACCTGTTGCCG (site TTATGGGCTCG)”, the “recombinant barcode read abundance (log10)” value came out at 0.0305.

Turning to “TCCTGTACTTGGGTTCTAACCTGTTGCAT (site TCCAGTACTAT)”, the “recombinant barcode read abundance (log10)” value turned out to be 0.272.

“TCCTGTACTTGGGTTCTAACCTGTTGCAT (site TCCCGTACTAT)”: the “recombinant barcode read abundance (log10)” value is 0.705.

Regarding “TCCTGTACTTGGGTTCTAACCTGTTGCAT (site TCCGGTACTAT)”, the “recombinant barcode read abundance (log10)” value was determined as 0.00868.

Turning to “TCCTGTACTTGGGTTCTAACCTGTTGCAT (site TCCTGTACTAT)”, the “recombinant barcode read abundance (log10)” value was 1.01.

Consider “TCGAACCCTTGGGTTCTAACCTGTTGCGA (site TCGAACCCTTC)”, for which the “recombinant barcode read abundance (log10)” value came out at 0.927.

Take “TCGAACCCTTGGGTTCTAACCTGTTGCGA (site TCGCACCCTTC)”: the “recombinant barcode read abundance (log10)” value amounted to 0.0454.

For the sequence “TCGAACCCTTGGGTTCTAACCTGTTGCGA (site TCGGACCCTTC)”, the “recombinant barcode read abundance (log10)” value was found to be 0.114.

On to “TCGAACCCTTGGGTTCTAACCTGTTGCGA (site TCGTACCCTTC)”, for which the “recombinant barcode read abundance (log10)” value was found to be 0.0144.

For the sequence “TCGAACCCTTGGGTTCTAACCTGTTGCTT (site GCGAACCCTAA)”, the “recombinant barcode read abundance (log10)” value was determined as 0.0343.

With “TCGAACCCTTGGGTTCTAACCTGTTGCTT (site TCGAACCCTAA)”, the “recombinant barcode read abundance (log10)” value amounted to 0.258.

For “TCGAAGGCTTGGGTTCTAACCTGTTGCCT (site TCAAAGGCTAG)”, the “recombinant barcode read abundance (log10)” value amounted to 0.411.

Take “TCGAAGGCTTGGGTTCTAACCTGTTGCCT (site TCCAAGGCTAG)”: the “recombinant barcode read abundance (log10)” value was determined as 0.0717.

As for “TCGAAGGCTTGGGTTCTAACCTGTTGCCT (site TCGAAGGCTAG)”, the “recombinant barcode read abundance (log10)” value came to 0.382.

For the sequence “TCGAAGGCTTGGGTTCTAACCTGTTGCCT (site TCTAAGGCTAG)”, the “recombinant barcode read abundance (log10)” value came out at 0.0236.

As to “TCGAATCCTTGGGTTCTAACCTGTTGCCT (site TCGAAACCTAG)”, the “recombinant barcode read abundance (log10)” value amounted to 0.0251.

“TCGAATCCTTGGGTTCTAACCTGTTGCCT (site TCGAACCCTAG)”: the “recombinant barcode read abundance (log10)” value was found to be 0.0582.

For “TCGAATCCTTGGGTTCTAACCTGTTGCCT (site TCGAAGCCTAG)”, the “recombinant barcode read abundance (log10)” value turned out to be 0.0385.

For “TCGAATCCTTGGGTTCTAACCTGTTGCCT (site TCGAATCCTAG)”, the “recombinant barcode read abundance (log10)” value came to 0.173.

For the sequence “TCGAATGCTTGGGTTCTAACCTGTTGCCT (site TCGAATGCTAG)”, the “recombinant barcode read abundance (log10)” value was found to be 0.0629.

“TCGAATGCTTGGGTTCTAACCTGTTGCCT (site TCGGATGCTAA)”: the “recombinant barcode read abundance (log10)” value turned out to be 0.0663.

On to “TCGACGCCTTGGGTTCTAACCTGTTGCTT (site ACGACGTCTAA)”, for which the “recombinant barcode read abundance (log10)” value came out at 0.0317.

“TCGACGCCTTGGGTTCTAACCTGTTGCTT (site TCGACGCCTAA)”: the “recombinant barcode read abundance (log10)” value amounted to 0.145.

In the case of “TCGAGAGCTTGGGTTCTAACCTGTTGCTA (site TCGAGAGCTCG)”, the “recombinant barcode read abundance (log10)” value is 0.183.

Take “TCGAGAGCTTGGGTTCTAACCTGTTGCTA (site TCGAGAGCTTA)”: the “recombinant barcode read abundance (log10)” value came to 0.446.

Take “TCGAGTGCTTGGGTTCTAACCTGTTGCCT (site TCGAGTACTAG)”: the “recombinant barcode read abundance (log10)” value was 0.187.

As to “TCGAGTGCTTGGGTTCTAACCTGTTGCCT (site TCGAGTCCTAG)”, the “recombinant barcode read abundance (log10)” value stood at 0.19.

As to “TCGAGTGCTTGGGTTCTAACCTGTTGCCT (site TCGAGTGCTAG)”, the “recombinant barcode read abundance (log10)” value came to 0.0982.

Regarding “TCGAGTGCTTGGGTTCTAACCTGTTGCCT (site TCGAGTTCTAG)”, the “recombinant barcode read abundance (log10)” value turned out to be 0.

For “TCGCAGACTTGGGTTCTAACCTGTTGCCT (site CCGCAGACTTG)”, the “recombinant barcode read abundance (log10)” value was 0.54.

For “TCGCAGACTTGGGTTCTAACCTGTTGCCT (site TCGCAGACTAG)”, the “recombinant barcode read abundance (log10)” value is 0.286.

With “TCGCATTCTTGGGTTCTAACCTGTTGCAT (site TCGCATTCTAT)”, the “recombinant barcode read abundance (log10)” value stood at 0.159.

Take “TCGCATTCTTGGGTTCTAACCTGTTGCAT (site TCGCGTTCTAA)”: the “recombinant barcode read abundance (log10)” value was 0.198.

Consider “TCGCGAACTTGGGTTCTAACCTGTTGCCT (site TCGCGAACTAG)”, for which the “recombinant barcode read abundance (log10)” value worked out at 0.252.

Turning to “TCGCGAACTTGGGTTCTAACCTGTTGCCT (site TCGGGAACTAG)”, the “recombinant barcode read abundance (log10)” value is 0.

For the sequence “TCGCGTACTTGGGTTCTAACCTGTTGCAT (site GCTCGTACTAT)”, the “recombinant barcode read abundance (log10)” value is 0.0605.

As to “TCGCGTACTTGGGTTCTAACCTGTTGCAT (site TCGCGTACTAT)”, the “recombinant barcode read abundance (log10)” value was determined as 0.189.

On to “TCGCGTCCTTGGGTTCTAACCTGTTGCAA (site TAGCGTCCTGT)”, for which the “recombinant barcode read abundance (log10)” value was 0.119.

Turning to “TCGCGTCCTTGGGTTCTAACCTGTTGCAA (site TCGCGTCCTTT)”, the “recombinant barcode read abundance (log10)” value stood at 0.402.

With “TCGCGTCCTTGGGTTCTAACCTGTTGCAG (site TCACGTCCTCT)”, the “recombinant barcode read abundance (log10)” value is 0.231.

For the sequence “TCGCGTCCTTGGGTTCTAACCTGTTGCAG (site TCGCGTCCTCT)”, the “recombinant barcode read abundance (log10)” value was 0.379.

“TCGCGTGCTTGGGTTCTAACCTGTTGCGG (site CATTCCACTAG)”: the “recombinant barcode read abundance (log10)” value came to 0.0782.

“TCGCGTGCTTGGGTTCTAACCTGTTGCGG (site TCGCGTGCTCC)”: the “recombinant barcode read abundance (log10)” value came to 0.363.

Consider “TCGCGTTCTTGGGTTCTAACCTGTTGCTT (site TCGCATTCTAT)”, for which the “recombinant barcode read abundance (log10)” value came to 0.217.

On to “TCGCGTTCTTGGGTTCTAACCTGTTGCTT (site TCGCGTTCTAA)”, for which the “recombinant barcode read abundance (log10)” value was 0.677.

As for “TCGCTAGCTTGGGTTCTAACCTGTTGCCT (site ACGCTAGCTAG)”, the “recombinant barcode read abundance (log10)” value was 0.0632.

As to “TCGCTAGCTTGGGTTCTAACCTGTTGCCT (site CCGCTAGCTAG)”, the “recombinant barcode read abundance (log10)” value stood at 0.4.

With “TCGCTAGCTTGGGTTCTAACCTGTTGCCT (site GCGCTAGCTAG)”, the “recombinant barcode read abundance (log10)” value was determined as 0.0173.

With “TCGCTAGCTTGGGTTCTAACCTGTTGCCT (site TCGCTAGCTAG)”, the “recombinant barcode read abundance (log10)” value was 0.0976.

Regarding “TCGTATACTTGGGTTCTAACCTGTTGCGG (site TAGTATACTCA)”, the “recombinant barcode read abundance (log10)” value came to 0.193.

Consider “TCGTATACTTGGGTTCTAACCTGTTGCGG (site TCGTATACTCC)”, for which the “recombinant barcode read abundance (log10)” value is 0.396.

“TCGTGAGCTTGGGTTCTAACCTGTTGCCT (site TAGTGAGCTAG)”: the “recombinant barcode read abundance (log10)” value amounted to 0.0646.

Turning to “TCGTGAGCTTGGGTTCTAACCTGTTGCCT (site TCGTGAGCTAG)”, the “recombinant barcode read abundance (log10)” value was determined as 0.226.

Take “TCGTGAGCTTGGGTTCTAACCTGTTGCTG (site GGTGACCCTAT)”: the “recombinant barcode read abundance (log10)” value turned out to be 0.147.

On to “TCGTGAGCTTGGGTTCTAACCTGTTGCTG (site TCGTGAGCTCA)”, for which the “recombinant barcode read abundance (log10)” value was found to be 0.301.

For “TCGTGCCCTTGGGTTCTAACCTGTTGCCT (site TCGTGCACTAG)”, the “recombinant barcode read abundance (log10)” value worked out at 0.0746.

As to “TCGTGCCCTTGGGTTCTAACCTGTTGCCT (site TCGTGCCCTAG)”, the “recombinant barcode read abundance (log10)” value came out at 0.398.

With “TCGTGCCCTTGGGTTCTAACCTGTTGCCT (site TCGTGCGCTAG)”, the “recombinant barcode read abundance (log10)” value is 0.165.
